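Method: 48-hour compound exposure of cells in 96-well plates, five concentrations, linear interpolation of endpoints. Abbreviation: GI50, concentration required for 50% inhibition of growth.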 Calls of active or inactive are those of the source. Cut-off read from the data, not from the text of the source: active = GI50 up to about 1.1 µM and inactive = higher.
Assays:
Assay in all cases: NCI-60 cell line screen, 48 h
BT-549 = system: BT-549
OVCAR-5 = system: OVCAR-5
KM12 = system: KM12
SR = system: SR
IGROV-1 = system: IGROV-1
SK-OV-3 = system: SK-OV-3
K562 = system: K562
M14 = system: M14
OVCAR-4 = system: OVCAR-4
NCI-H23 = system: NCI-H23
HL-60 = system: HL-60
HOP-92 = system: HOP-92
CCRF-CEM = system: CCRF-CEM
NCI-H226 = system: NCI-H226
HCT-15 = system: HCT-15
SN12C = system: SN12C
NCI/ADR-RES = system: NCI/ADR-RES
SK-MEL-28 = system: SK-MEL-28
COLO 205 = system: COLO 205

Row | Structure (SMILES) | GI50 (BT-549) | GI50 (OVCAR-5) | GI50 (KM12) | GI50 (SR) | GI50 (IGROV-1) | GI50 (SK-OV-3) | GI50 (K562) | GI50 (M14) | GI50 (OVCAR-4) | GI50 (NCI-H23) | GI50 (HL-60) | GI50 (HOP-92) | GI50 (CCRF-CEM) | GI50 (NCI-H226) | GI50 (HCT-15) [µM] | GI50 (SN12C) | GI50 (NCI/ADR-RES) | GI50 (SK-MEL-28) | GI50 (COLO 205)
1 | Cc1cc2cc3ccccc3cc2c(=O)[nH]1 | > 10 µM (inactive) | > 10 µM (inactive) | > 10 µM (inactive) | > 10 µM (inactive) | > 10 µM (inactive) | > 10 µM (inactive) | > 10 µM (inactive) | > 10 µM (inactive) | > 10 µM (inactive) | > 10 µM (inactive) | > 10 µM (inactive) | > 10 µM (inactive) | > 10 µM (inactive) | > 10 µM (inactive) |  |  |  |  | 
2 | COc1c2c(cc3c1C(=O)c1c(O)cccc1C3=O)CC(O)CC2 (stereo not given) | 19.5 µM (inactive) | > 100 µM (inactive) | > 100 µM (inactive) |  | 85.5 µM (inactive) | 21.5 µM (inactive) | > 100 µM (inactive) | 32 µM (inactive) | > 100 µM (inactive) | 20.1 µM (inactive) | > 100 µM (inactive) | 18.7 µM (inactive) | > 100 µM (inactive) | 54.5 µM (inactive) | 35.8 | > 100 µM (inactive) | 35.8 µM (inactive) | > 100 µM (inactive) | > 100 µM (inactive)
3 | N=C1C=C(N)C(=O)c2[nH]c(=O)ccc21 |  | 2.5 µM (inactive) | 1.82 µM (inactive) | 3.44 µM (inactive) | 1.96 µM (inactive) | 13.8 µM (inactive) | 1.91 µM (inactive) | 14.8 µM (inactive) | 1.38 µM (inactive) | 2.23 µM (inactive) | 2.63 µM (inactive) | 2.11 µM (inactive) | 2.36 µM (inactive) | 2.53 µM (inactive) | 2.06 | 1.76 µM (inactive) | 2.27 µM (inactive) | 20.6 µM (inactive) | 1.73 µM (inactive)
4 | NNC(=S)N1CCN(C(=S)NN)CC1 | > 100 µM (inactive) | > 100 µM (inactive) | > 100 µM (inactive) | > 100 µM (inactive) | 43.4 µM (inactive) | > 100 µM (inactive) |  | 13.7 µM (inactive) | 28.8 µM (inactive) | > 100 µM (inactive) | 32.4 µM (inactive) | > 100 µM (inactive) | > 100 µM (inactive) |  |  | > 100 µM (inactive) |  | > 100 µM (inactive) | 65.8 µM (inactive)
5 | Cc1n2nc(N)sc2n[n+]1CC(=O)c1ccccc1 | > 100 µM (inactive) | > 100 µM (inactive) | > 100 µM (inactive) |  | > 100 µM (inactive) | 24.3 µM (inactive) | > 100 µM (inactive) | > 100 µM (inactive) | > 100 µM (inactive) | > 100 µM (inactive) |  |  | 70 µM (inactive) | > 100 µM (inactive) | > 100 | > 100 µM (inactive) | > 100 µM (inactive) | > 100 µM (inactive) | > 100 µM (inactive)
6 | NCCSC1(O)C(=O)c2ccccc2-c2ccccc21 (stereo not given) |  | 1.53 µM (inactive) | 1.63 µM (inactive) | 0.0472 µM (active) | 1.8 µM (inactive) | 1.63 µM (inactive) | 0.382 µM (active) | 1.02 µM (active) | 0.207 µM (active) | 0.143 µM (active) | 1.09 µM (active) |  | 0.158 µM (active) | 1.33 µM (inactive) | 1.49 | 1.36 µM (inactive) | 0.272 µM (active) | 1.21 µM (inactive) | 1.85 µM (inactive)
7 | N#Cc1cccc(Nc2ccccc2SSc2ccccc2Nc2cccc(C#N)c2)c1 | > 10 µM (inactive) | 17.5 µM (inactive) | 9.46 µM (inactive) |  | 8.65 µM (inactive) | 13.5 µM (inactive) | 5.12 µM (inactive) | 7.55 µM (inactive) | 10.7 µM (inactive) | 11.7 µM (inactive) | 4.76 µM (inactive) | 7.89 µM (inactive) | 2.94 µM (inactive) | 10.3 µM (inactive) | 10.4 | 7.59 µM (inactive) | 8.79 µM (inactive) | 13.3 µM (inactive) | > 10 µM (inactive)
8 | CN1CCN(CCn2c3c4ccccc4ccc3c3oc(=O)c4ccccc4c32)CC1 |  | 5.74 µM (inactive) | 2.42 µM (inactive) | 1.5 µM (inactive) | 13.2 µM (inactive) | 12.7 µM (inactive) | 1.44 µM (inactive) | 1.68 µM (inactive) | 2.26 µM (inactive) | 5.83 µM (inactive) | 2.15 µM (inactive) | 5.85 µM (inactive) | 1.56 µM (inactive) | 16.6 µM (inactive) | 2.72 | 1.51 µM (inactive) | 6.87 µM (inactive) | 4.94 µM (inactive) | 1.8 µM (inactive)
9 | S=C(S)NCNC(=S)S |  | > 100 µM (inactive) | > 100 µM (inactive) |  | > 100 µM (inactive) | > 100 µM (inactive) | > 100 µM (inactive) | > 100 µM (inactive) | > 100 µM (inactive) | > 100 µM (inactive) | > 100 µM (inactive) | > 100 µM (inactive) | > 100 µM (inactive) |  | > 100 | > 100 µM (inactive) | > 100 µM (inactive) | > 100 µM (inactive) | > 100 µM (inactive)

From ChEMBL document CHEMBL1201862, “PubChem BioAssay data set” (2004)
